Tests used:
Type in all cases: cell-based
[1] = tested on: Akt phosphorylation (S473); test: Western blot of Akt phosphorylation (S473) in U2-OS cells; conditions: 1-hour pre-treatment
Experimental: Fig.2: MW01 and MW05 are potent and selective kinase inhibitors. […] Heatmap indicates lower IC50. […] (C) Western blot analysis of NF-κB p65 phosphorylation (S536) and Akt phosphorylation (S473) following 1-hour pre-treatment with DMSO, MW01 (10 µM), MW05 (10µM), PI-103 (1 µM), NU7441 (1 µM), or MU1210 (1 µM) in unstimulated, after 90 min irradiation (IR, 20 Gy), or after 20 min TNFα (10 ng/ml) conditions in U2-OS cells. (D) mRNA expression analysis of CLK2 (top), 48 hours after transfection with siNC, CLK2 si1, or CLK2 si2. mRNA expression analysis of NFKBIA (bottom), 48 hours after transfection with siNC, CLK2 si1, orCLK2 si2. Values are normalized to unstimulated siNC expressing cells. Statistical comparison was made between experimental conditions and respective paired siNC expressing controls. ns: not significant; **, ***, ****: p<0.01, p<0.001, p<0.000. (E) Western blot analysis of U2-OS cells after transfection with siNC or CLK2 si2 unstimulated, after irradiation (IR), or after TNFα treatment. Vinculin used as loading control. (F) IC50 (nM) of all CLK isoforms for MW01 and MW05. (G) Quantification from (E) with CLK2 knockdown and p-p65 quantification (top left and top right, respectively) and CLK4 knockdown and p-p65 (bottom left and bottom right, respectively. ns: not significant; **, ***, ****: p<0.01, p<0.001, p<0.0001.
Cells were collected by scraping and lysed in Baeuerle lysis buffer supplemented with Protease (Thermo Fisher Scientific, 78429) and Phosphatase (Thermo Fisher Scientific, 78420) inhibitors after the appropriate treatment and time point. Proteins were quantified by Bradford assay (Bio-Rad, 5000006) and 20-50 µg of extracted proteins were loaded on 4-20% Protein Gel (Bio-Rad, 4568096) and then transferred onto a PVDF membrane (Bio-Rad, 1620177) using Tris-Glycine buffer with 20% of methanol. Blocking was performed for 1h with 5% not-fat dry milk in PBS 1X. […] The membranes were analyzed by ECL (Thermo Fisher Scientific, 34580) and detected by ChemiDoc XRS+ (Bio-Rad) using ImageLab software (Bio-Rad). […]

[2] = tested on: NF-κB subunit p65 phosphorylation (S536); test: Western blot of p65 phosphorylation (S536) after DNA damage (irradiation or etoposide) in U2-OS cells; conditions: 1-hour pre-treatment, irradiation (IR, 20 Gy), 90 min
Experimental: (§1) Fig.1: Identification of inhibitors specific for DNA damage-induced NF-κB activity. (A) Flowchart representing the high-throughput chemical library screening. A screen/counter-screen strategy was used by stimulating NF-κB in U2-OS cells with etoposide (50 µM for 90 min) and hits were counter-screened with TNFα (10 ng/ml for 20 min). Cells were pre-treated with compounds (10 µM) for 1 hour before stimulation, fixed, and percent p65 nuclear translocation measured by fluorescence microscopy. IC50 values were used for final selection. (B) Comparison of mean p65 nuclear translocation following either etoposide or TNFa stimulation after treatment with each counter-screened hit compound. Values were normalized to etoposide or TNFα positive controls. Specific inhibitors (red) of DNA damage-induced NF-κB signaling were defined by setting cut-off criteria (black line). […] (C) IC50 determination for MW01 (left) and MW05 (right) of p65 nuclear translocation, following either etoposide or TNFα treatment. […] IC50 noted with a dotted line. (D) Structures of compounds selected as leads for further analysis, MW01 (5-Hydroxy-10,11-dimethoxy-9H-benzo[c]indolo[3,2,1-ij][1,5]naphthyridin-9-one) and MW05 (3-Amino-7-methoxypyrazolo[3,4-b]quinolin-1-yl)-[3-(dimethylamino)phenyl]methanone). (E) Western blot analysis (top) and quantification (bottom) of NF-κB subunit p65 phosphorylation (S536) following 1-hour pre-treatment with DMSO, MW01 (10 µM), or MW05 (10 µM), in unstimulated, after 90 min irradiation (IR, 20 Gy), or after 20 min TNFα (10 ng/mL) conditions in U2- OS cells. B-actin was used as loading control after. The p-p65 signal was first normalized to β-actin loading control per sample, then each value to DMSO-treated unstimulated to evaluate relative activation of NF-κB. Ns: not significant; ***: p<0.001.
NF-κB was stimulated by DNA damage through either 20 Gy irradiation (IR) and analyzed after 90 minutes or by 10 ng/ml TNFα and analyzed after 20 minutes unless otherwise noted.
All compounds were pre-treated for 1-hour prior to NF-κB stimulation unless otherwise noted.
Cells were collected by scraping and lysed in Baeuerle lysis buffer supplemented with Protease (Thermo Fisher Scientific, 78429) and Phosphatase (Thermo Fisher Scientific, 78420) inhibitors after the appropriate treatment and time point. Proteins were quantified by Bradford assay (Bio-Rad, 5000006) and 20-50 µg of extracted proteins were loaded on 4-20% Protein Gel (Bio-Rad, 4568096) and then transferred onto a PVDF membrane (Bio-Rad, 1620177) using Tris-Glycine buffer with 20% of methanol. Blocking was performed for 1h with 5% not-fat dry milk in PBS 1X. Immunodetection was obtained using primary and secondary antibodies reported in Key Resources Table. The membranes were analyzed by ECL (Thermo Fisher Scientific, 34580) and detected by ChemiDoc XRS+ (Bio-Rad) using ImageLab software (Bio-Rad).

[3] = tested on: NF-κB subunit p65 phosphorylation (S536); test: Western blot of p65 phosphorylation (S536) after TNFα in U2-OS cells; conditions: 1-hour pre-treatment, TNFα 10 ng/ml, 20 min
Experimental: as §1, with “(D) Structures of compounds selected as leads for further analysis, MW01 (5-Hydroxy-10,11-dimethoxy-9H-benzo[c]indolo[3,2,1-ij][1,5]naphthyridin-9-one) and MW05 (3-Amino-7-methoxypyrazolo[3,4-b]quinolin-1-yl)-[3-(dimethylamino)phenyl]methanone).” left out, “B-actin was used as loading control after. The p-p65 signal was first normalized to β-actin loading control per sample, then each value to DMSO-treated unstimulated to evaluate relative activation of NF-κB. Ns: not significant; ***: p<0.001.” left out
NF-κB was stimulated by DNA damage through either 20 Gy irradiation (IR) and analyzed after 90 minutes or by 10 ng/ml TNFα and analyzed after 20 minutes unless otherwise noted. […]
Cells were collected by scraping and lysed in Baeuerle lysis buffer supplemented with Protease (Thermo Fisher Scientific, 78429) and Phosphatase (Thermo Fisher Scientific, 78420) inhibitors after the appropriate treatment and time point. Proteins were quantified by Bradford assay (Bio-Rad, 5000006) and 20-50 µg of extracted proteins were loaded on 4-20% Protein Gel (Bio-Rad, 4568096) and then transferred onto a PVDF membrane (Bio-Rad, 1620177) using Tris-Glycine buffer with 20% of methanol. […]

Oc1cccc(-c2nc(N3CCOCC3)c3oc4ncccc4c3n2)c1 [PI-103, reference compound]
reduction of p-Akt [1]: complete reduction

Cn1cc(-c2ccc3occ(-c4cccc(-c5ccncc5)c4)c3n2)cn1 [MU-1210, reference compound]
phosphorylation of p65 at serine 536 after DNA damage [2]: reduction in p65 phosphorylation

O=c1cc(N2CCOCC2)oc2c(-c3cccc4c3sc3ccccc34)cccc12 [NU-7441, reference compound]
phosphorylation of p65 at serine 536 after DNA damage [2]: did not reduce p-p65 | phosphorylation of p65 at serine 536, TNFα-stimulated [3]: did not reduce p-p65

Cn1cc(-c2ccc3occ(-c4ccccc4-c4ccccc4)c3n2)cn1 [MU140, reference compound]
phosphorylation of p65 at serine 536 after DNA damage [2]: not

— patent EP4467141A1, “PYRAZOLO-QUINOLINES AS SELECTIVE INHIBITORS OF GENOTOXIC STRESS-INDUCED IKK/NF- KB PATHWAYS FOR CANCER THERAPY” (Max-Delbrück-Centrum für Molekulare Medizin in der …, priority 2023, dated 2024)
